US20090264470A1 (priority 2006, published 2009)

What was measured:
[1] = Body weight of diet-induced obese male C57BL/6J mice, repeated oral dosing for 28 days; format: in vivo, mouse; conditions: Dunnett's test p<0.001; doses as in Table 2
Method: Sibutramine, which is currently used clinically, and rimonabant, which has recently received regulatory approval for the management of obesity were used as reference compounds.
Sixty-five C57BL/6J mice (7-8 weeks of age) were ordered from Charles River, Margate, Kent. Mice were group housed in polypropylene cages with free access to a high fat diet (D12451 45% of Kcal derived from fat; Research Diets, New Jersey, USA) and tap water at all times. Animals were maintained at 21±4° C. and 55±20% humidity on a normal phase 12 h light-dark cycle (lights on 04:30 h)
Animals were exposed to the high fat diet for 16 weeks. During this time body weight was recorded weekly. […] Body weight and food and water intake was recorded daily. […]
Body weight and food and water intake were recorded daily. Following drug administration the animals were examined and any overt behaviour was recorded. […]
The test compounds were dissolved in 1% methylcellulose. […] Drug doses were expressed as free base.
Resulting body weights, food intake and water intake were expressed as mean values±SEM, and the SEMs are calculated from residuals of the statistical model. Body weight data was analysed by ANCOVA with Day 1 as covariate followed by appropriate comparisons (two-tailed) to determine significant differences from the control group. […] Daily food and water intake data was analysed by ANOVA.

[2] = Acute administration: wet mash and food intake and 24 h body weight in lean male C57BL/6J mice; format: in vivo, mouse; conditions: dosed orally at 10 mg/kg
Method: The goal of this study was to investigate the effects of various ratios of bupropion:(R)-norfluoxetine on body weight and food and water intake in male C57BL/6J mice habituated to the daily presentation of a palatable wet mash diet. […] Animals were maintained on normal-phase lighting. Test compounds were administered orally and measurements were made over the following 24 hours. All experiments included appropriate vehicle-treated control groups.
Sixty-two male C57BL/6J mice (weight range 20-25 g) were ordered from Harlan UK, Bicester, UK. The mice were individually housed in polypropylene cages at a temperature of 21±4° C. and 55%±20% humidity. Animals were maintained on a normal phase light-dark cycle (lights off for 12 h from 19:00-07:00 h) during which time the room was illuminated by red light. […] In addition, animals were habituated to a daily presentation of a wet mash diet (1 part powdered chow:1.5 parts tap water) placed on a dish on the cage floor. Animals were maintained under these conditions for at least ten days before experimentation commenced.
Typically an acute study was run each week with each study containing 60 animals. On the day prior to testing, the experimental animals were randomly allocated to suitable treatment groups. Animals were weighed and 2 h wet mash intake was calculated (to the nearest 0.1 g). […]
Drug administration occurred 60 minutes before the presentation of ‘wet mash’ which was at approximately 09:30 am. […] The mash was replaced with a fresh quantity of wet mash at the 4 hour time point. […] Wet mash was replaced with a known quantity of standard pellets at the 6 hour time point. […] Food and water intakes of the different groups of animals were measured concurrently. The animals were monitored at each reading and any overt drug-induced behavioural effects were recorded. […]
Results (body weights (g) at 0, 24 h; change in body weight (g) over 24; food and water intake at 1, 2, 4, 6 and 24 h and between 1-2 h, 2-4 h, 4-6 h) were expressed as mean values±SEM. […]

[3] = molecular target: T1, Human Cannabinoid 1 (CB1) (Homo sapiens, UniProt P21554); experiment: Ca2+i response to 2-AG (dose-response with or without compound), CB1 GqΔGi/CHO cells, DSIS flow cytometry; format: cell-based; conditions: 2-AG with or without compound (FIG. 2)
T1 construct: expressed in transfected cells; host or cells: CHO cells stably expressing the GqΔGi chimera
T1 sequence (P21554 whole entry): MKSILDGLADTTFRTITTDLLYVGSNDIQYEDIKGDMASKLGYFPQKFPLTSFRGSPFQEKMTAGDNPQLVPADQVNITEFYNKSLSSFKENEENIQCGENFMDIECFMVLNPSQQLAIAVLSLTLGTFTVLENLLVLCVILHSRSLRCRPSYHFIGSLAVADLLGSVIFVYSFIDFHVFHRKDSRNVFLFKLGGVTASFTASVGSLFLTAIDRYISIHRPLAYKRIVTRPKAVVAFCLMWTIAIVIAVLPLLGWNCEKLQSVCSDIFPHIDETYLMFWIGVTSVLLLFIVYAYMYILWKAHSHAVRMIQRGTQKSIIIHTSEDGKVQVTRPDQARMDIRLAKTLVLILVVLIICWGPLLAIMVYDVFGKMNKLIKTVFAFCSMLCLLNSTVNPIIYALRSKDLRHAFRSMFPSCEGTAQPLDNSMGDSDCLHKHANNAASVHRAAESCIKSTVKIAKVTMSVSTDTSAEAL
Source text: cDNA for the G protein GqΔGi chimera was generated by PCR and inserted into the polylinker region of the pcDNA3/hygro+vector (Invitrogen). Stable expression of GqΔGi chimera protein in CHO cell line was generated under hygromycin selection. Human Cannabinoid 1 (CB1) cDNA was inserted into the polylinker region of the pcDNA3.1/(+) vector (Invitrogen) and DNA was introduced into the GqΔGi/CHO cell line by Lipofectamine reagent (Invitrogen). Cell lines stably expressing the CB receptor with Gq ΔGi chimera protein were generated by double selection with hygromycin and G418 (Coward, P., et al. 1999. Chimeric G proteins allow a high-throughput signaling assay of Gi-coupled receptors. Anal Biochem. 270:242-8).
CB1 Cells were plated 24-48 hours in advance, and were harvested with trypsin at ˜80% confluency. […]
The probe-loaded CB1 and Control cell mixture was placed in the Cell Suspension System on the DSIS where they were continuously rocked to keep them in a suspended state. […] The DSIS software, NVS Sampler, recorded a timing file and the CyAn software, Summit, recorded a data file. These two files were then compiled and analyzed by our proprietary software, NVS Analyzer, to determine the percent of cells that responded to each concentration. The data was transferred to GraphPAD Prism for a non-linear regression curve fit that determined the EC50. […]

CB2 receptor = molecular target: T2, CB2 receptor (Homo sapiens, UniProt P34972); experiment: Ca2+i response to 2-AG (dose-response with or without compound), CB2 receptor bearing cells; format: cell-based; conditions: CB2 receptor bearing cells (FIG. 2)
T2 construct: host or cells: CB2 receptor bearing cells
T2 sequence (P34972 whole entry): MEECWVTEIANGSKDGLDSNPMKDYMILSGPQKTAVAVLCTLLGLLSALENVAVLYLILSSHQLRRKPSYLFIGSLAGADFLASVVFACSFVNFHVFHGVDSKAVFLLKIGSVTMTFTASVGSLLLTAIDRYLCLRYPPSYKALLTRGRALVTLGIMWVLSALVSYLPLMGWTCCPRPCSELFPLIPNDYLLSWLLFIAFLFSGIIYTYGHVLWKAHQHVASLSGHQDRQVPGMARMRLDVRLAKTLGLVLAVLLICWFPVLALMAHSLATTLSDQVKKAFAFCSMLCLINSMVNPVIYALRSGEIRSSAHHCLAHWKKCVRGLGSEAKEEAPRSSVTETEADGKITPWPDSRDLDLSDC

human CB1 receptors [4] = molecular target: T3, human CB1 receptors (Homo sapiens, UniProt P21554); experiment: [35S]GTPγS binding assay, CHO-k1 cell membranes; format: biochemical
T3 construct: expressed in transfected cells; host or cells: CHO-k1 cells (membranes)
T3 sequence (P21554 whole entry): as the sequence (P21554 whole entry) above
Method: [^35S]GTPγS binding assays were performed with CHO-k1 cell membranes stably expressing human CB1 receptors in 96-well ScintiPlate (PerkinElmer). The membranes (12.5 μg/well) were preincubated with compound 7 in the binding buffer (50 mM Tris-HCl, pH 7.4, 100 mM NaCl, 3 mM MgCl2, 0.2 mM EDTA, 0.2% BSA and 10 μM GDP) at 30° C. for 30 min, then added various concentrations of agonists (WIN 55212-2 or CP 55,940) and [^35S]GTPγS (0.2 nM) in a final volume of 200 μl. Reactions were carried out at 30° C. for 60 min, followed by centrifugation of plate at […] for 15 min. After removing supernatant, the radioactivity was quantitated on a TopCounter.

human CB1 receptors [5] = molecular target: T3, human CB1 receptors; experiment: Competition ligand binding assay, CHO-k1 cell membranes; conditions: human CB1 cell membranes (FIG. 6)
Method: (§1) Competition ligand binding assays were performed with the non-selective cannabinoid receptor agonist ([^3H]CP 55,940) (0.75 nM) in the binding buffer containing 50 mM Tris-HCl, pH 7.4, 3 mM MgCl2, 1 mM EDTA, 0.2% BSA using CHO-k1 cell membranes stably expressing human CB1 receptors or mouse brain membrane preparations in 96-well plate format. The receptor membranes (10 μg/well) were pre-incubated with different concentrations of tested compounds in the binding buffer at room temperature for 30 min prior to addition of 0.75 nM [^3H]CP 55,940 in a final volume of 100 μl. The binding was carried out at room temperature for another 2 h. To determine the non-specific binding, experiments were also performed in the presence of 10 μM unlabeled CP 55,940. Binding was terminated by addition of cold binding buffer and filtrated on Whatman GF/B glass-fiber filters using a sampling manifold. The filters were washed 6 times with cold binding buffer and air-dried overnight. The radioactivity was quantitated on a TopCounter (PerkinElmer) after adding scintillation fluid. Specific binding was defined as the difference between the binding in the presence and absence of 10 μM unlabeled CP 55, 940.

[6] = molecular target: T4, mouse CB1 (mouse brain membrane) (Mus musculus, UniProt P47746); experiment: Competition ligand binding assay, mouse brain membrane preparations; conditions: mouse brain membranes (FIG. 6)
T4 construct: human CB1 receptors or mouse brain membrane preparations in 96-well plate format; from tissue; host or cells: mouse brain membrane preparations
T4 sequence (P47746 whole entry): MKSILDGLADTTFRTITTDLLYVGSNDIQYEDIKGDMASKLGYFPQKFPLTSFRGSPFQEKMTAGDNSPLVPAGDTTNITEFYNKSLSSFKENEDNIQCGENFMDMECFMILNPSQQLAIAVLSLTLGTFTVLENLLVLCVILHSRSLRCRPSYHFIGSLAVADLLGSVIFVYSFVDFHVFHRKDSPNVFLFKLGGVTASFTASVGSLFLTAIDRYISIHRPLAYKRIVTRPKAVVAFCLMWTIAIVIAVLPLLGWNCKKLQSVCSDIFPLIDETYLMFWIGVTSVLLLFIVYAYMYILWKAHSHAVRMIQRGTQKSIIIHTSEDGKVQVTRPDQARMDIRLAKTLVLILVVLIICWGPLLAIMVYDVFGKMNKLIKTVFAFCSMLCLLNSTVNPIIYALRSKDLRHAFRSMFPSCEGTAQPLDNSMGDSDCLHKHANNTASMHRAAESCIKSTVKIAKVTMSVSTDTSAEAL
Method: as §1

Row | SMILES | weight reduction as compared to vehicle on day 29 [1] | 24 hour body weight change versus vehicle ([2]; one-way ANOVA (FIG. 10)) | daily food intake versus vehicle ([2]; one-way ANOVA (FIG. 15)) | body weight versus vehicle ([2]; one-way ANOVA (FIG. 16)) | effect on the 2-AG dose response (Ca2+i) [3] | effect on the 2-AG dose response (Ca2+i) (CB2 receptor) | pA2 estimation using CP 55940 as an agonist (human CB1 receptors [4]; CB1 cell line membranes (FIG. 4)) | antagonist versus inverse agonist activity in [35S]GTPγS binding (human CB1 receptors [4]; response dropped below basal levels (FIG. 5)) | inhibition of binding of [3H]CP 55,940 (human CB1 receptors [5]) | inhibition of binding of [3H]CP 55,940 [6]
1 | Cc1c(C(=O)NN2CCCCC2)nn(-c2ccc(Cl)cc2Cl)c1-c1ccc(Cl)cc1 [Rimonabant] | statistically significant weight reduction | No significant differences versus vehicle | No significant differences versus vehicle | No significant differences versus vehicle | – | – | – | – | – | –
2 | Fc1ccc(C(OCCCc2c[nH]cn2)c2ccc(F)cc2)cc1 [compound 7] | – | – | – | – | right shift | No effect | did not support an allosteric effect | inverse agonist activity | partially inhibited | almost fully inhibited
